This assay concerns P. aeruginosa M13513. Nature of the assay: Bactericidal effect by killing kinetics (time-kill curve). The format is cell-based, Pseudomonas aeruginosa. The note with it: killing kinetics at 64 µg/mL of P6.2. The method, then: The bactericidal activity was determined according to the CLSI recommendations. In short, the bactericidal activity of the antimicrobial agents on the microorganisms was evaluated using a time–kill curve. The Minimal Bactericidal Concentration (MBC) is the lowest drug concentration required to eliminate 99.9% of viable organisms (a 3-log reduction in CFU/mL compared to the control) after a set incubation period under defined conditions. This is the most common method for estimating bactericidal activity.
The killing kinetics of an antimicrobial agent allow us to observe how the agent exerts its activity as a function of time, determining viable cells by counting colony-forming units at different time points. Normally, for commonly used antibiotics, this measurement is carried out over a 24-h period, since they reach their maximum activity during this period. However, for AMPs, these times are much shorter; in fact, these antimicrobials exert their maximum activity in just hours or minutes. For this reason, killing kinetics at MIC was carried out by measuring viable bacteria at short intervals over a period of three hours.

No end group written: not given here.

For GLLRKWGKKWKEFLRRVWK-NH2 [Peptide P6.2], the “time to 99.9% reduction in viable bacteria (bactericidal effect)” value is recorded as “less than 45 min”.
